Values of other authors as cited in patent EP3646858A1, “ENCAPSULATED FORMULATIONS” (Pharmalink, SL, priority 2017, dated 2019).

Conditions: association with piperine; inhibition of hepatic and intestinal glucuronidation

COc1cc(/C=C/C(=O)CC(=O)/C=C/c2ccc(O)c(OC)c2)ccc1O [curcumin]
increase of the bioavailability of curcumin: 20 fold
